Where a name gives a salt, the structure may show the parent alone.
Biological target: T1, TLR7/NFKb HEK cells (Homo sapiens, UniProt Q9NYK1)
T1 construct: expressed in transfected cells; host or cells: HEK cells (TLR7/NFKb reporter line)
T1 sequence (Q9NYK1 27-1049): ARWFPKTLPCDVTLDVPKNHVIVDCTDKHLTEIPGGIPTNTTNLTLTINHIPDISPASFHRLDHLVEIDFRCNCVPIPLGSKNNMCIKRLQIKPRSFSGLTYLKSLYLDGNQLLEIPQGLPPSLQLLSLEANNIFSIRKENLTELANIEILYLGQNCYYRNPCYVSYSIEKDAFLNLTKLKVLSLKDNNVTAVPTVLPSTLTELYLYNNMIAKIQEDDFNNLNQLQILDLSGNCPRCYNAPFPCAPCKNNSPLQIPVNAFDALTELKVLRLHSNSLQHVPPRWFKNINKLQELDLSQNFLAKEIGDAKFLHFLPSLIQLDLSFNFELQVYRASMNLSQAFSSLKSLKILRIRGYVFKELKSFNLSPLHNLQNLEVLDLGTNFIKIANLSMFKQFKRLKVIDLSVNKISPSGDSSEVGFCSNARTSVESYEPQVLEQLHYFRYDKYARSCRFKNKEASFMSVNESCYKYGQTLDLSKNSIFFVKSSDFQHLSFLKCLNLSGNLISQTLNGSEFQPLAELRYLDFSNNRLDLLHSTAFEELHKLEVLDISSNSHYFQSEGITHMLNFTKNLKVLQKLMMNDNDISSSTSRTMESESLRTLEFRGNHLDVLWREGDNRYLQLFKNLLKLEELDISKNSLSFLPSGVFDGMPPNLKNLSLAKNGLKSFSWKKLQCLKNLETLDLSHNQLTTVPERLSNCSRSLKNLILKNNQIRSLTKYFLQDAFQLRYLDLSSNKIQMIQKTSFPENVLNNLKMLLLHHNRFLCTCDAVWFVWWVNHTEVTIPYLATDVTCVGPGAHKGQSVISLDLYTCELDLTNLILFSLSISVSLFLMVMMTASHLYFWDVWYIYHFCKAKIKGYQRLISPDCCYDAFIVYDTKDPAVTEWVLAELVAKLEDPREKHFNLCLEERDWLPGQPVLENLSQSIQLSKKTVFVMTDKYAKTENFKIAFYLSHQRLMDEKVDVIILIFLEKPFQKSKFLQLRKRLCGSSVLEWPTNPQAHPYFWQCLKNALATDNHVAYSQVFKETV
Assay: HEK Cell Assay (TLR7/NFKb reporter, Steady-Glo luciferase readout)
Assay type: cell-based
Settings: 30 min compound preincubation, then R*48 agonist for 5 hours, read-out: Potency
Summary of the method: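 Steady-Glo luminescence after 5 h stimulation with R*48 agonist, following 30 min compound preincubation. Assay run in HEK cells carrying a TLR7/NFKb luciferase reporter, plated at 5000 cells/well and grown 24 h at 37° C (10% CO2) before treatment.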

IC50 [µM] | SMILES
> 10 | C[C@H]1C[C@@H](NC(=O)C(N)C(F)(F)F)CN(c2ccc(C(N)=O)c3ncccc23)C1 (single isomer, unassigned) [Compound 184]
< 1 | C[C@H]1C[C@@H](NC2CCNC2=O)CN(c2ccc(C#N)c3nccnc23)C1 (stereo partly drawn) [Compound 123, 8-[(3S,5R)-3-methyl-5-[(2-oxopyrrolidin-3-yl)amino]piperidin-1-yl]quinoxaline-5-carbonitrile]
1 to 10 | CC1(C)C[C@@H](NC(=O)C(N)C(F)(F)F)CN(c2ccc(C#N)c3nccnc23)C1 (single isomer, unassigned) [Compound 212]
< 1 | C[C@H]1C[C@@H](NC(=O)CC2C3CC2CN(C)C3)CN(c2ccc(C#N)c3nccnc23)C1 (single isomer, unassigned) [Compound 357]
< 1 | CC(C)[C@H](O)C(=O)N[C@@H]1C[C@H](C)CN(c2ccc(C#N)c3nccnc23)C1 [Compound 20, (S)—N-((3R,5S)-1-(8-cyanoquinoxalin-5-yl)-5-methylpiperidin-3-yl)-2-hydroxy-3-methylbutanamide]
1 to 10 | N#Cc1ccc(N2C[C@@H](NC(=O)CO)C[C@@H](C(F)(F)F)C2)c2nccnc12 (relative stereo) [Compound 223, cis-N-[1-(8-cyanoquinoxalin-5-yl)-5-(trifluoromethyl)piperidin-3-yl]-2-hydroxyacetamide]
1 to 10 | C[C@H]1C[C@@H](NC(C)(C)CO)CN(c2ccc(C(F)(F)F)c3nccnc23)C1 [Compound 252, 2-methyl-2-[[(3R,5S)-5-methyl-1-[8-(trifluoromethyl)quinoxalin-5-yl]piperidin-3-yl]amino]propan-1-ol]
1 to 10 | CC(C(=O)N[C@@H]1C[C@H](C)CN(c2ccc(C(F)F)c3nccnc23)C1)N1CCC(O)CC1 (stereo partly drawn) [Compound 325, N-[(3R,5S)-1-[8-(difluoromethyl)quinoxalin-5-yl]-5-methylpiperidin-3-yl]-2-(4-hydroxypiperidin-1-yl)propanamide]
< 1 | CC1(C)CCN(CC(=O)N[C@@H]2C[C@H](C(F)(F)F)CN(c3ccc(C#N)c4ncccc34)C2)C1 [Compound 577, N-[(3R,5S)-1-(8-Cyano-quinolin-5-yl)-5-trifluoromethyl-piperidin-3-yl]-2-(3,3-dimethyl-pyrrolidin-1-yl)-acetamide]
1 to 10 | C[C@H]1C[C@@H](NC(=O)C2CC(F)(F)C2)CN(c2ccc(C(F)(F)F)c3nccnc23)C1 [Compound 257, 3,3-difluoro-N-[(3R,5S)-5-methyl-1-[8-(trifluoromethyl)quinoxalin-5-yl]piperidin-3-yl]cyclobutane-1-carboxamide]
1 to 10 | C[C@H]1C[C@@H](NC(=O)CC(C)(C)C)CN(c2c(F)cc(C#N)c3nccnc23)C1 [Compound 343, N-[(3R,5S)-1-(8-cyano-6-fluoroquinoxalin-5-yl)-5-methylpiperidin-3-yl]-3,3-dimethylbutanamide]
1 to 10 | O=C(CN1CCCCC1)NCC1CCN(c2ccnc3nccnc23)CC1 [Compound 388, 2-Piperidin-1-yl-N-(1-pyrido[2,3-b]pyrazin-8-yl-piperidin-4-ylmethyl)-acetamide]
< 1 | C[C@H]1C[C@@H](NC(=O)NC2CC2)CN(c2ccc(C(F)(F)F)c3ncccc23)C1 [Compound 518, 1-Cyclopropyl-3-[(3R,5S)-5-methyl-1-(8-trifluoromethyl-quinolin-5-yl)-piperidin-3-yl]-urea]
1 to 10 | CCC(C)CC(=O)N[C@@H]1C[C@H](C)CN(c2ccnc3nccnc23)C1 (single isomer, unassigned) [Compound 152]
< 1 | C[C@H]1C[C@@H](NC(=O)CN2CCOCC2)CN(c2ccc(C(F)(F)F)c3nccnc23)C1 [Compound 249, N-[(3R,5S)-5-methyl-1-[8-(trifluoromethyl)quinoxalin-5-yl]piperidin-3-yl]-2-(morpholin-4-yl)acetamide]
< 1 | C[C@H]1C[C@@H](NC(=O)CO)CN(c2ccc(Cl)c3ncccc23)C1 [Compound 263, N-[(3R,5S)-1-(8-chloroquinolin-5-yl)-5-methylpiperidin-3-yl]-2-hydroxyacetamide]
< 1 | N#Cc1ccc(N2CC(N)CC(F)(F)C2)c2cccnc12 (centres unmarked) [Compound 423, 5-(5-Amino-3,3-difluoro-piperidin-1-yl)-quinoline-8-carbonitrile hydrochloride]
1 to 10 | N#Cc1ccc(N2C[C@@H](NC(=O)CCC(=O)N3CCC3)C[C@@H](C(F)(F)F)C2)c2cccnc12 (racemic) [Compound 482]
< 1 | CC(C)[C@H](O)C(=O)NC1CC(C(F)(F)F)CN(c2ccc(C#N)c3nccnc23)C1 (single isomer, unassigned) [Compound 88]
< 1 | CN1CCC(NC(=O)C2CN(c3ccc(C#N)c4nccnc34)CC(F)(F)C2)CC1 (centres unmarked) [Compound 529, 1-(8-Cyano-quinoxalin-5-yl)-5,5-difluoro-piperidine-3-carboxylic acid (1-methyl-piperidin-4-yl)-amide]
< 1 | CC1CC(CN2CCN(C)CC2)CN(c2ccc(C(F)(F)F)c3ncccc23)C1 (single isomer, unassigned) [Compound 533, cis-5-[3-Methyl-5-(4-methyl-piperazin-1-ylmethyl)-piperidin-1-yl]-8-trifluoromethyl-quinoline]
< 1 | Cc1c(F)cc(N2C[C@@H](C)C[C@@H](N)C2)c2cccnc12 [Compound 488, (3R,5S)-1-(7-Fluoro-8-methyl-quinolin-5-yl)-5-methyl-piperidin-3-ylamine hydrochloride]
< 1 | C[C@H]1C[C@@H](NC(=O)CN(C)C)CN(c2ccc(C(F)F)c3ncccc23)C1 [Compound 209, N-[(3R,5S)-1-[8-(difluoromethyl)quinolin-5-yl]-5-methylpiperidin-3-yl]-2-(dimethylamino)acetamide]
1 to 10 | CNC(=O)[C@@H]1C[C@@H](C)CN(c2ccc(C#N)c3nccnc23)C1 (relative stereo) [Compound 542, trans-1-(8-Cyano-quinoxalin-5-yl)-5-methyl-piperidine-3-carboxylic acid methylamide]
< 1 | CCN(CC)CC(=O)NCC1CCN(c2ccc(C(F)(F)F)c3ncccc23)CC1 [Compound 443, 2-Diethylamino-N-[1-(8-trifluoromethyl-quinolin-5-yl)-piperidin-4-ylmethyl]-acetamide]
1 to 10 | CN(C)CC(=O)NC1CN(c2ccc(C#N)c3ncccc23)CC(F)(F)C1 (single isomer, unassigned) [Compound 450]
< 1 | C[C@H]1C[C@@H](NC(=O)C(C)(C)C2CCN(C)CC2)CN(c2ccc(C(F)(F)F)c3ncccc23)C1 [Compound 351, 2-methyl-N-[(3R,5S)-5-methyl-1-[8-(trifluoromethyl)quinolin-5-yl]piperidin-3-yl]-2-(1-methylpiperidin-4-yl)propanamide]
1 to 10 | CCN(CC)CCNCC1CCN(c2ccnc3ccc(C(F)(F)F)cc23)CC1 [Compound 377, N,N-Diethyl-N′-[1-(6-trifluoromethyl-quinolin-4-yl)-piperidin-4-ylmethyl]-ethane-1,2-diamine]
< 1 | C[C@H]1C[C@@H](NC2CCN(C)C2=O)CN(c2ccc(C(F)(F)F)c3nccnc23)C1 (single isomer, unassigned) [Compound 352]

Source: patent US10947213B1 (Merck Patent GmbH, priority 2015, dated 2021)
